# Results taken from US6686382B2, “Sulfonamides and derivatives thereof that modulate the activity of endothelin” (Encysive Pharmaceuticals Inc., priority 1999, dated 2004).
# Where a name gives a salt, the structure may show the parent alone.
# Tests used:
# [1] = biological target: T1, human ETA receptors (Homo sapiens, UniProt P25101); experiment: Endothelin binding inhibition, Binding Test #1: inhibition of binding to ETA receptors (TE 671 cell membranes); settings: relative to N-(4-chloro-3-methyl-5-isoxazolyl)-2-{[3,4-(methylenedioxy)-6-methylphenyl)acetyl]-thiophene-3-sulfonamide (= 1.0)
# T1 construct: endogenous in cells; host or cells: TE 671 cells (ATCC HTB 139), membrane preparation
# T1 sequence (P25101 21-427): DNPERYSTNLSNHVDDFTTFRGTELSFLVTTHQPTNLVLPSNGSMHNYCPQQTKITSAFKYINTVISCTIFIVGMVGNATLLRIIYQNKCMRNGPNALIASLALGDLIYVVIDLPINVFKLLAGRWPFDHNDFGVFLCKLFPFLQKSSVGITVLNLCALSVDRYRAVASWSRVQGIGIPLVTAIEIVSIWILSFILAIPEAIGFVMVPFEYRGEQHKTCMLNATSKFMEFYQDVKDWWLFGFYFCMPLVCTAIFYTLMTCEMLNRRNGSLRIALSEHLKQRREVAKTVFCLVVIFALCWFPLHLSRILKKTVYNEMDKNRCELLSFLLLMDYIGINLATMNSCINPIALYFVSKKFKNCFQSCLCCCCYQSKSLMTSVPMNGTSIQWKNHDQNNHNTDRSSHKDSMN
# Text: Compounds that are potential endothelin antagonists are identified by testing their ability to compete with ^125I-labeled ET-1 for binding to human ETA receptors or ETB receptors present on isolated cell membranes. The effectiveness of the test compound as an antagonist or agonist of the biological tissue response of endothelin can also be assessed by measuring the effect on endothelin induced contraction of isolated rat thoracic aortic rings. The ability of the compounds to act as antagonists or agonists for ETB receptors can be assess by testing the ability of the compounds are to inhibit endothelin-1 induced prostacyclin release from cultured bovine aortic endothelial cells.
# A. Endothelin Binding Inhibition—Binding Test #1: Inhibition of Binding to ETA Receptors
# TE 671 cells (ATCC Accession No. HTB 139) express ETA receptors. These cells were grown to confluence in T-175 flasks. Cells from multiple flasks were collected by scraping, pooled and centrifugedfor 10 min at 190×g. The cells were resuspended in phosphate buffered saline (PBS) containing 10 mM EDTA using a Tenbroeck homogenizer. The suspension was centrifuged at 4° C. at 57,800×g for 15 min, the pellet was resuspended in 5 ml of buffer A (5 mM HEPES buffer, pH 7.4 containing aprotinin (100 KIU/ml)) and then frozen and thawed once. 5 ml of Buffer B (5 mM HEPES Buffer, pH 7.4 containing 10 mM MnCl2 and 0.001% deoxyribonuclease Type 1) was added, the suspension mixed by inversion and then incubated at 37° C. for 30 minutes. The mixture was centrifuged at 57,800×g as described above, the pellet washed twice with buffer A and then resuspended in buffer C (30 mM HEPES buffer, pH 7.4 containing aprotinin (100 KIU/ml) to give a final protein concentration of 2 mg/ml and stored at −70° C. until use.
# The membrane suspension was diluted with binding buffer (30 mM HEPES buffer, pH 7.4 containing 150 mM NaCl, 5 mM MgCl2, 0.5% Bacitracin) to a concentration of 8 μg/50 μl. ^125I-endothelin-1 (3,000 cpm, […]) was added to 50 μL of either: (A) endothelin-1 (for non specific binding) to give a final concentration 80 nM); (B) binding buffer (for total binding); or (C) a test compound (final concentration 1 nM to 100 μM). The membrane suspension (50 μL), containing up to 8 μg of membrane protein, was added to each of (A), (B), or (C). Mixtures were shaken, and incubated at 4° C. for 16-18 hours, and then centrifuged at 4° C. for 25 min at 2,500×g. Alternatively, the incubation was conducted at 24° C. […] This, must be kept in mind when comparing IC50 concentrations among compounds provided herein.
# The supernatant, containing unbound radioactivity, was decanted and the pellet counted on a Genesys multiwell gamma counter. The degree of inhibition of binding (D) was calculated according to the following equation: [formula]
# Each test was generally performed in triplicate.
SMILES,ETA ACTIVITY (ETA antagonist activity relative to reference compound) [1],melting point
"Cc1cc(C)c(CC(=O)c2sccc2S(=O)(=O)Nc2onc(C)c2Cl)c(C)c1 [3-{[(4-chloro-3-methyl-5-isoxazolyl)amino]sulfonyl}-2-(2,4,6-trimethylphenylacetyl)thiophene]",6.4,
"Cc1cc(C)c(OS(=O)(=O)N(C)C)c(C)c1NC(=O)c1sccc1S(=O)(=O)Nc1onc(C)c1Cl [Compound 24, 3-{[(3-{[(4-chloro-3-methyl-5-isoxazolyl)amino]sulfonyl}-2-thiophenyl)carbonyl]amino}-2,4,6-trimethylphenyl-N,N-dimethylsulfamate]",,169 to 174 °C
"Cc1cc(C)c(NC(=O)c2sccc2S(=O)(=O)Nc2onc(C)c2Cl)c(C(=O)O)c1 [3-{[(4-chloro-3-methyl-5-isoxazolyl)amino]sulfonyl}-N-(2-carboxyl-4,6-dimethylphenyl)-2-thiophenecarboxamide]",0.05,
"Cc1cc(C)c(NC(=O)c2sccc2S(=O)(=O)Nc2onc(C)c2C)c(C#N)c1C [Compound 9, N-(2-cyano-3,4,6-trimethylphenyl)-3-{[(3,4-dimethyl-5-isoxazolyl)amino]sulfonyl}-2-thiophenecarboxamide]",18.6,
"CC(=O)c1cc2c(cc1NC(=O)c1sccc1S(=O)(=O)Nc1onc(C)c1C)OCO2 [3-{[(3,4-dimethyl-5-isoxazolyl)amino]sulfonyl}-N-(2-acetyl-4,5-methylenedioxyphenyl)-2-thiophenecarboxamide]",0.05,
"Cc1cc(C)c(NC(=O)c2sccc2S(=O)(=O)Nc2onc(C)c2Cl)c(C(C)O)c1 (stereo not drawn) [Compound 18, 3-{[(4-chloro-3-methyl-5-isoxazolyl)amino]sulfonyl}-N-[2-(1-hydroxyethyl)-4,6-dimethylphenyl]-2-thiophene carboxamide]",26.4,
"Cc1cc(C)c(NC(=O)c2sccc2S(=O)(=O)Nc2onc(C)c2Cl)c(C)c1 [3-{[(4-chloro-3-methyl-5-isoxazolyl)amino]sulfonyl}-N-(2,4,6-trimethylphenyl)-2-thiophenecarboxamide]",2.4,
"COC(=O)c1c(C)cc(C)c(NC(=O)c2sccc2S(=O)(=O)Nc2onc(C)c2Cl)c1C [3-{[(4-chloro-3-methyl-5-isoxazolyl)amino]sulfonyl}-N-(3-methoxycarbonyl-2,4,6-trimethylphenyl)-2-thiophenecarboxamide]",4.7,
"Cc1cc(C)c(NC(=O)c2sccc2S(=O)(=O)Nc2onc(C)c2Cl)c(C(=O)N(C)C)c1 [Compound 20, 3-{[(4-chloro-3-methyl-5-isoxazolyl)amino]sulfonyl}-N-{2-[(dimethylamino)carbonyl]-4,6-dimethylphenyl)-2-thiophene carboxamide]",14.4,
"Cc1cc(C)c(OCC2CC2)c(C)c1NC(=O)c1sccc1S(=O)(=O)Nc1onc(C)c1Cl [Compound 26, 3-{[(4-chloro-3-methyl-5-isoxazolyl)amino]sulfonyl}-N-{3-[(cyclopropylmethyl)oxy]-2,4,6-trimethylphenyl}-2-thiophenecarboxamide]",9.4,155 to 158 °C
"CO/N=C(\C)c1cc(C)cc(C)c1NC(=O)c1sccc1S(=O)(=O)Nc1onc(C)c1Cl [Compound 22, 3-{[(4-chloro-3-methyl-5-isoxazolyl)amino]sulfonyl}-N-{2,4-dimethyl-6-[(methyloxy)ethanimidoyl]phenyl}-2-thiophene carboxamide]",23.6,140 to 145 °C
"Cc1cc(C)c(NC(=O)c2sccc2S(=O)(=O)Nc2onc(C)c2Cl)c(C(C)O)c1 (stereo not drawn) (as salt: Na) [Compound 18, 3-{[(4-chloro-3-methyl-5-isoxazolyl)amino]sulfonyl}-N-[2-(1-hydroxyethyl)-4,6-dimethylphenyl]-2-thiophene carboxamide]",,147 to 154 °C
"Cc1cc(C)c(NC(=O)c2sccc2S(=O)(=O)Nc2onc(C)c2Cl)c(C(N)=O)c1 [3-{[(4-chloro-3-methyl-5-isoxazolyl)amino]sulfonyl}-N-(2-carbamoyl-4,6-dimethylphenyl)-2-thiophenecarboxamide]",1.04,
"CC(=O)c1cc2c(cc1NC(=O)c1sccc1S(=O)(=O)Nc1onc(C)c1Cl)OCO2 [3-{[(4-chloro-3-methyl-5-isoxazolyl)amino]sulfonyl}-N-(2-acetyl-4,5-methylenedioxyphenyl)-2-thiophenecarboxamide]",0.15,

# Second part, the compound after the results:
ETA ACTIVITY (ETA antagonist activity relative to reference compound) [1],melting point,SMILES
55.7,,"Cc1cc(C)c(NC(=O)c2sccc2S(=O)(=O)Nc2onc(C)c2Cl)c(C#N)c1C [Compound 32, 3-{[(4-chloro-3-methyl-5-isoxazolyl)amino]sulfonyl}-N-(2-cyano-3,4,6-trimethylphenyl)-2-thiophenecarboxamide]"
,152 to 155 °C,"CCCS(=O)(=O)c1cc(C)cc(C)c1NC(=O)c1sccc1S(=O)(=O)Nc1onc(C)c1Cl [Compound 48, 3-{[(4-chloro-3-methyl-5-isoxazolyl)amino]sulfonyl)-N-[2,4-dimethyl-6-(propylsulfonyl)phenyl]-2-thiophenecarboxamide]"
0.1,163 to 167 °C,CCCc1c(O)c(C(C)=O)cc(C(C)=O)c1NC(=O)c1sccc1S(=O)(=O)Nc1onc(C)c1Cl [Compound 36]
2.0,170 to 175 °C,"Cc1nc(C)c(NC(=O)c2sccc2S(=O)(=O)Nc2onc(C)c2Cl)c(C)n1 [Compound 28, 3-{[(4-chloro-3-methyl-5-isoxazolyl)amino]sulfonyl}-N-(2,4,6-trimethyl-5-pyrimidinyl)-2-thiophenecarboxamide]"
3.8,152 to 154 °C,"CCc1cc(C)cc(C)c1NC(=O)c1sccc1S(=O)(=O)Nc1onc(C)c1Cl [Compound 50, 3-{[(4-chloro-3-methyl-5-isoxazolyl)amino]sulfonyl}-N-(2-ethyl-4,6-dimethylphenyl)-2-thiophenecarboxamide]"
1.1,205 to 207 °C,"Cc1cc(-c2ncco2)cc(C)c1NC(=O)c1sccc1S(=O)(=O)Nc1onc(C)c1Cl [Compound 52, 3-{[(4-chloro-3-methyl-5-isoxazolyl)amino]sulfonyl}-N-[2,6-dimethyl-4-(1,3-oxazol-2-yl)phenyl]-2-thiophenecarboxamide]"
2.7,174 to 176 °C,"Cc1cc(C)c(NC(=O)c2sccc2S(=O)(=O)Nc2onc(C)c2Cl)c(C(=O)N(C)CC(C)(C)C)c1 [Compound 40, 3-{[(4-chloro-3-methyl-5-isoxazolyl)amino]sulfonyl}-N-(2,4-dimethyl-6-{[methyl(2,2-dimethylpropyl)amino]carbonyl}phenyl)-2-thiophenecarboxamide]"
103.8,223 to 225 °C,"CC(=O)c1c(C)c(C)cc(C)c1NC(=O)c1sccc1S(=O)(=O)Nc1onc(C)c1Cl [Compound 30, N-(2-acetyl-3,4,6-trimethylphenyl)-3-{[(4-chloro-3-methyl-5-isoxazolyl)amino]sulfonyl}-2-thiophenecarboxamide]"
